# In ChEMBL document CHEMBL4725455, “Use of Dihydroorotate Dehydrogenase Inhibitors for Treatment of Autoimmune Diseases and Cancer” (ACS Med Chem Lett, 2020):
# Biological target: Dihydroorotate dehydrogenase (quinone), mitochondrial (Homo sapiens, UniProt Q02127)
# Experiment: Inhibition of DHODH (unknown origin) using L-dihydroorotic acid as substrate preincubated for 30 mins followed by substrate addition measured every 10 mins in presence of decylubiquinone by DCIP dye based coupled enzyme assay
# Chain of Dihydroorotate dehydrogenase (quinone), mitochondrial (Q02127 whole entry): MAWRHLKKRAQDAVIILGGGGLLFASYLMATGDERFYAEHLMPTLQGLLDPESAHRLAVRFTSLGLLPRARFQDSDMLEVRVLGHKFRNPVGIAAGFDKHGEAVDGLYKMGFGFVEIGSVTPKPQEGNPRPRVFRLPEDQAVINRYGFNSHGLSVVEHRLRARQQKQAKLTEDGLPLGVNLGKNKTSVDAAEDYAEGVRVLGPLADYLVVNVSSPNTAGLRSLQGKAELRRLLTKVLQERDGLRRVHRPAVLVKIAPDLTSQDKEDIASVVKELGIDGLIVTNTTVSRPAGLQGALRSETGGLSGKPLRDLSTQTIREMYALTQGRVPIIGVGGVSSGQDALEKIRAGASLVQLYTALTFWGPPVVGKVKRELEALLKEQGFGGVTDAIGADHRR
row,IC50,Structure (SMILES)
1,1 nM,Cc1nc2c(C(=O)O)cc(-c3c(F)c(F)c(-c4ccc(CN5CCCC(F)(F)C5)cc4)c(F)c3F)cc2[nH]1
2,10 nM,Cc1nc2c(C(=O)O)cc(-c3ccc(-c4ccccc4)cc3)cc2[nH]1
3,1 nM,Cc1nc2c(C(=O)O)cc(-c3ccc(-n4c(C)ccc4C)cc3)cc2[nH]1
4,1 nM,Cc1nc2c(C(=O)O)cc(-c3ccc(-c4ccccc4CN4CCCC4)cc3)cc2[nH]1
5,1 nM,Cc1nc2c(C(=O)O)cc(-c3c(F)c(F)c(-c4ccccc4)c(F)c3F)cc2[nH]1
6,10 nM,Cc1nc2c(C(=O)O)cc(-c3c(F)c(F)c(-c4ccc(CN5CCOCC5)cc4)c(F)c3F)cc2[nH]1
7,10 nM,Cc1nc2c(C(=O)O)cc(-c3ccc(-c4ccc(O)cc4)cc3)cc2[nH]1
8,1 nM,Cc1cccc(-c2ccc(-c3cc(C(=O)O)c4nc(C)[nH]c4c3)cc2)c1
